Experimental data taken from PubChem BioAssay AID2060487 (Molecular Pharmacology Branch, DTP, NCI, 2025).
“And” between values parts separate entries of the source, which are not always exact repeats. Identical values can stand only once.

Tested on: 997537-175-T-J1-PDC complex spheroid viability
Assay: Anticancer human tumor 997537-175-T-J1-PDC patient-derived colon adenocarcinoma cell line growth inhibition [GQUAD]
Conditions: for viability, T/C: stronger effect = lower value; active = viability on the fitted dose curve at most 10% of control; inactive = the rest
From the text: DNA G-quadruplex Stabilizer Agents in Combinations in Complex Spheroids
A high-throughput screen of multi-cell type tumor spheroids was designed to identify active combinations of DNA G-quadruplex stabilizer agents and targeted small molecules. Complex spheroids include a stromal component modeled by human endothelial cells (HUVEC) and fibroblasts modeled by human mesenchymal stem cells (MSCs). The concentration ranges selected for each drug and investigational agent were based upon clinically achievable concentrations if the clinical Cmax of the agent was known.
Compounds. The drugs and investigational agents: pidnarulex (CX-5461; NSC782164), APTO-253 (NSC789042), BRACO-19 (NSC847499), peposertib (NSC802822), ceralasertib (NSC780249), elimusertib (NSC800525), camonsertib (NSC841442), AZD-1390 (NSC803789), olaparib (NSC753686), talazoparib (NSC767125), ART-558 (NSC835418), sotorasib (NSC818433), MRTX-1133 (NSC836407), SN-38 (NSC673596), topotecan (NSC609699), etoposide (NSC141540), doxorubicin (NSC123127), gemcitabine (NSC613327), 5-fluorouracil (NSC19893), paclitaxel (NSC125973), vemurafenib (NSC761431), panobinostat (NSC761190), R-306465 (JNJ-16241199; NSC773264), adavosertib (NSC754352), TP-3654 (NSC805149), carboplatin (NSC241240), KSQ-4279 (NSC840948), and staurosporine (NSC755774) were obtained from the National Cancer Institute (NCI) Developmental Therapeutics Program Chemical Repository (34). The FDA-approved anticancer drug set is available from the NCI Developmental Therapeutics Program. […] The stock solutions were prepared in dimethyl sulfoxide (DMSO, Sigma-Aldrich, St. Louis, MO, cat. D2650) at 800-fold the tested concentration and stored at -70 degrees C prior to their use. All drugs and investigational agents were tested over a range starting from a high concentration at or near the clinical Cmax and decreasing in half-log increments. If the clinical Cmax for an agent had not been determined, the highest concentration tested was 10 microM.
2.3 Cell Culture. All cells were maintained in an incubator at 37 degrees C and 5% CO2 with 95% humidity. The PDC lines were cultured according to standard operating procedures established by the NCI PDMR. All PDCs were thawed and cultured in Matrigel-coated flasks prepared with a working solution of 1X Ham's F-12 nutrient mix, without supplementation (Invitrogen, cat. 11765054), 100 U/mL penicillin-streptomycin (Invitrogen, cat. 15140122), and 2.5% Matrigel (Corning Inc., cat. 354248) for the first three passages. The 857933-349-R-J2-PDC line was cultured in 6C/Colon 1B media, which includes advanced DMEM/F-12 (Thermo Fisher Scientific, cat. 12634028), 10 mM HEPES (Thermo Fisher Scientific, cat. 15630080), 1X GlutaMAX supplement (Thermo Fisher Scientific, cat. 35050061), 0.1 mg/mL primocin (InvivoGen, cat. ant-pm-2), 10% defined fetal bovine serum, heat inactivated (HyClone Laboratories Inc., cat. SH30070.03HI), 50% L-WRN conditioned media (ATCC, cat. CRL-3276), 1.25 mM N-Acetyl-L-cysteine (Sigma-Aldrich, cat. A9165), 10 mM nicotinamide (Sigma-Aldrich, cat. N0636), 1X B-27 supplement (Thermo Fisher Scientific, cat. 17504044), 1X N-2 supplement (Thermo Fisher Scientific, cat. 17502048), 10 microM Y-27632 dihydrochloride (Tocris Bioscience, cat. 1254), and 50 ng/mL human EGF recombinant protein (Thermo Fisher Scientific, cat. PHG0311). The 485176-168-R4-J1-PDC line was cultured in Panc media, which includes all 6C/Colon 1B media components plus 100 ng/mL human FGF-10 (Thermo Fisher Scientific, cat. 100-26), 500 nM SB-431542 (Selleckchem, cat. S1067), and gastrin (Tocris, cat. 3006).
[…]
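Also: spheroids exposed to the agents for 7 days.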

CC1COCCN1c1cc(-c2ccnn2C)c2ccnc(-c3ccn[nH]3)c2n1 (stereo not drawn)
1.75 µM and 0.846 µM and 0.219 µM: IC50 (curve of compound)
inactive: viability, T/C (compound 0.0316 µM) 80.4% and 95.8% and 90.8% | viability, T/C (compound 0.1 µM) 67.5% and 75.7% and 62.5% | viability, T/C (compound 0.316 µM) 46% and 65.2% and 33.9% | viability, T/C (compound 1 µM) 61% and 40% and 50% | viability, T/C (compound 3.16 µM) 58% and 48.9% and 43.1% | viability, T/C (compound 10 µM) 36.4% and 43.5% and 49.4%

CC[C@@]1(O)C(=O)OCc2c1cc1n(c2=O)Cc2cc3c(CN(C)C)c(O)ccc3nc2-1
inactive: viability, T/C (compound 0.000999 µM) 111% (2×) and 97.1% | viability, T/C (compound 0.00316 µM) 69.8% and 102% and 104% | viability, T/C (compound 0.00999 µM) 90.1% and 96.7% and 105% | viability, T/C (compound 0.0316 µM) 80.1% and 87.1% and 83.8% | viability, T/C (compound 0.0999 µM) 71.2% and 79.7% and 72.6% | viability, T/C (compound 0.316 µM) 44.4% and 62.8% and 50.7%
0.276 µM and > 0.316 µM: IC50 (curve of compound)

C=CCn1c(=O)c2cnc(Nc3ccc(N4CCN(C)CC4)cc3)nc2n1-c1cccc(C(C)(C)O)n1
inactive: viability, T/C (compound 0.0316 µM) 95.7% and 89.4% and 112% | viability, T/C (compound 0.1 µM) 75.6% and 101% and 92.2% | viability, T/C (compound 0.316 µM) 81.8% and 88.3% and 92.2% | viability, T/C (compound 1 µM) 80.2% and 84.5% and 79.4% | viability, T/C (compound 3.16 µM) 73.2% and 44.9% and 49.3% | viability, T/C (compound 10 µM) 28.9% and 30.8% and 24.2%
5.75 µM and 2.73 µM and 3.53 µM: IC50 (curve of compound)

CCCS(=O)(=O)Nc1ccc(F)c(C(=O)c2c[nH]c3ncc(-c4ccc(Cl)cc4)cc23)c1F + CN(C)c1ccc(Nc2c3ccc(NC(=O)CCN4CCCC4)cc3nc3cc(NC(=O)CCN4CCCC4)ccc23)cc1
3.14 µM: IC50 (curve of first compound, second compound 0.1 µM)
7.03 µM: IC50 (curve of first compound, second compound 3.16 µM)
5.84 µM: IC50 (curve of first compound, second compound 10 µM)
2.18 µM: IC50 (curve of first compound, second compound 0.0316 µM)
4.72 µM: IC50 (curve of first compound, second compound 1 µM)
inactive: viability, T/C (second compound 0.0316 µM, first compound 0.0316 µM) 93.9% | viability, T/C (second compound 0.0316 µM, first compound 0.1 µM) 75.3% | viability, T/C (second compound 0.0316 µM, first compound 0.316 µM) 60.8% | viability, T/C (second compound 0.0316 µM, first compound 1 µM) 78.6% | viability, T/C (second compound 0.0316 µM, first compound 3.16 µM) 38.4% | viability, T/C (second compound 0.0316 µM, first compound 10 µM) 24.5% | viability, T/C (second compound 0.1 µM, first compound 0.0316 µM) 105% | viability, T/C (second compound 0.1 µM, first compound 0.1 µM) 73.1% | viability, T/C (second compound 0.1 µM, first compound 0.316 µM) 75.4% | viability, T/C (second compound 0.1 µM, first compound 1 µM) 70.6% | viability, T/C (second compound 0.1 µM, first compound 3.16 µM) 52.1% | viability, T/C (second compound 0.1 µM, first compound 10 µM) 32.7% | viability, T/C (second compound 0.316 µM, first compound 0.0316 µM) 71.3% | viability, T/C (second compound 0.316 µM, first compound 0.1 µM) 72.9% | viability, T/C (second compound 0.316 µM, first compound 0.316 µM) 81.3% | viability, T/C (second compound 0.316 µM, first compound 1 µM) 62.9% | viability, T/C (second compound 0.316 µM, first compound 3.16 µM) 59.4% | viability, T/C (second compound 0.316 µM, first compound 10 µM) 23.9% | viability, T/C (second compound 1 µM, first compound 0.0316 µM) 67% | viability, T/C (second compound 1 µM, first compound 0.1 µM) 55% | viability, T/C (second compound 1 µM, first compound 0.316 µM) 81.7% | viability, T/C (second compound 1 µM, first compound 1 µM) 43.3% | viability, T/C (second compound 1 µM, first compound 3.16 µM) 65.4% | viability, T/C (second compound 1 µM, first compound 10 µM) 26.9% | viability, T/C (second compound 3.16 µM, first compound 0.0316 µM) 70.3% | viability, T/C (second compound 3.16 µM, first compound 0.1 µM) 63.5% | viability, T/C (second compound 3.16 µM, first compound 0.316 µM) 85.1% | viability, T/C (second compound 3.16 µM, first compound 1 µM) 39.9% | viability, T/C (second compound 3.16 µM, first compound 3.16 µM) 78.9% | viability, T/C (second compound 3.16 µM, first compound 10 µM) 42.3% | viability, T/C (second compound 10 µM, first compound 0.0316 µM) 71.3% | viability, T/C (second compound 10 µM, first compound 0.1 µM) 62.6% | viability, T/C (second compound 10 µM, first compound 0.316 µM) 63.5% | viability, T/C (second compound 10 µM, first compound 1 µM) 56% | viability, T/C (second compound 10 µM, first compound 3.16 µM) 74.9% | viability, T/C (second compound 10 µM, first compound 10 µM) 36.4%
4.1 µM: IC50 (curve of first compound, second compound 0.316 µM)
